{"source": "patent US9695192B2", "about": "“Fused heterocyclic compounds as ion channel modulators” (GILEAD SCIENCES, INC., priority 2011, dated 2017)", "molecular_target": "T1, hNav1.2 sodium channel (Homo sapiens, UniProt Q99250)", "T1 construct": "expressed in transfected cells", "T1 sequence (Q99250 whole entry)": "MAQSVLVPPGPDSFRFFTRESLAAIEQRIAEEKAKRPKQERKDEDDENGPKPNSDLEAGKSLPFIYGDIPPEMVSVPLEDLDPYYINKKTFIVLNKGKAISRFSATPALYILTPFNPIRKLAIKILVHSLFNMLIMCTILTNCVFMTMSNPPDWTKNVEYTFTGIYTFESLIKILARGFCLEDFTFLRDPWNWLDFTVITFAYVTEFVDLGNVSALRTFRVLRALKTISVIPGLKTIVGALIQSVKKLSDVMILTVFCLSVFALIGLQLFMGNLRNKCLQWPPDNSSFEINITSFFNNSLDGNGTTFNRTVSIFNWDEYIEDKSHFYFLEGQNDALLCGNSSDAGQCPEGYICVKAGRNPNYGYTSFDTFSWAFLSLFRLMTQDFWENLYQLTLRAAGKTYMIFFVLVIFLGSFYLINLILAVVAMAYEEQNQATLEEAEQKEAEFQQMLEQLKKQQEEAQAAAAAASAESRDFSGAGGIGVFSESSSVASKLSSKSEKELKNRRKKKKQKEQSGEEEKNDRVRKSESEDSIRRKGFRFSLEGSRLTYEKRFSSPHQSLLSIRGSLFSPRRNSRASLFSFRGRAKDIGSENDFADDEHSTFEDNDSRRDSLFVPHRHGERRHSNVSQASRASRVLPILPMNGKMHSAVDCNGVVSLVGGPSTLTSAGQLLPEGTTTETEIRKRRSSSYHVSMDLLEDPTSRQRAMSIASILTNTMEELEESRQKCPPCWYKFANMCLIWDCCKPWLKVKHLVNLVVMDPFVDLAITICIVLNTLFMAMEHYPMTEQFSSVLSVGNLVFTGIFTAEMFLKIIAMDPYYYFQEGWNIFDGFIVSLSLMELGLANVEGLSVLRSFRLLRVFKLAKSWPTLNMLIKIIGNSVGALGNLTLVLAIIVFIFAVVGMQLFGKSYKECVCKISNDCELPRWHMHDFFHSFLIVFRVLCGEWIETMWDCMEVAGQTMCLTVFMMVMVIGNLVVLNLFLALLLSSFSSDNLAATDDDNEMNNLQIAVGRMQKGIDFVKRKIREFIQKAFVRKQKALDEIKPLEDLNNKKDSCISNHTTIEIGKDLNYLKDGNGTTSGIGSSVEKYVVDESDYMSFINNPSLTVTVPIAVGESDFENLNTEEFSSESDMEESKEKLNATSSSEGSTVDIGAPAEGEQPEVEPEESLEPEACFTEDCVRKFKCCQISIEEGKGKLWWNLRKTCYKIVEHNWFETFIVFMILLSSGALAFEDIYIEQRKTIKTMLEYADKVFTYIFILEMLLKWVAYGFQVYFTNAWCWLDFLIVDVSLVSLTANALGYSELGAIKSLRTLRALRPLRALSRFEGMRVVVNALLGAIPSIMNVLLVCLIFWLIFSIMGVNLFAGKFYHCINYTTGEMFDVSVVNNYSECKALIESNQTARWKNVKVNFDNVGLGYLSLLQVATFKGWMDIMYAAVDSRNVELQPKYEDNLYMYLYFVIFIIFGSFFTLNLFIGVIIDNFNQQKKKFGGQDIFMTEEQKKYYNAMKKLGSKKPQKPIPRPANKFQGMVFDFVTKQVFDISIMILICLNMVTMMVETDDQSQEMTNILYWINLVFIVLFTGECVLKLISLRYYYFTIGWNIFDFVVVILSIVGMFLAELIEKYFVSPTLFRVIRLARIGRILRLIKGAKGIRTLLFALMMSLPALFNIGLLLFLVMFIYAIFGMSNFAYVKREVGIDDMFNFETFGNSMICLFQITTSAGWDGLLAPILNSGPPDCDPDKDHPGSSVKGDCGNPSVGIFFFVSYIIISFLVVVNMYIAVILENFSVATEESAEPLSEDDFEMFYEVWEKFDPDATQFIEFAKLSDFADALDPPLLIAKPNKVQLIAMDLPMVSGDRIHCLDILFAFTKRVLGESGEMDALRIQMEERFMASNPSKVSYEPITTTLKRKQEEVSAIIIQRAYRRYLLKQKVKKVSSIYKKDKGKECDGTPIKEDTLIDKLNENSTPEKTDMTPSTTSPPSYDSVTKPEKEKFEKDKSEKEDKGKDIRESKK", "assay": "Nav1.2 use-dependent block, whole-cell voltage clamp, 10 Hz pulse train", "assay_type": "cell-based", "conditions": "Chantest conditions, read-out: NAV1.2 UDB-10 HZ % Inhibition", "description": "Wild-type (WT) cDNA stably transfected in Chinese hamster ovary (CHO) cells is used to record INa. Unless otherwise noted, all reagents are purchased from Sigma-Aldrich (St Louis, Mo., U.S.A.).\nWhole-cell voltage-clamp recordings are used to measure the biophysical properties of WT. Briefly, the pipette solution consists of (in mM) 110 CsF, 10 NaF, 20 CsCl, 2 EGTA, 10 HEPES, with a pH of 7.35 and osmolarity of 300 mOsmol/kg. The bath (control) solution contains in (mM): 145 NaCl, 4 KCl, 1.8 CaCl2, 1 MgCl2, 10 dextrose, 10 HEPES, with a pH of 7.35 and osmolarity of 310 mOsmol/kg. Cells are allowed to stabilize for 10 min after establishment of the whole-cell configuration before current is measured. Series resistance is compensated 90% to assure that the command potential is reached within microseconds with a voltage error<2 mV. Leak currents are subtracted by using an online P/4 procedure and all currents are low-pass Bessel filtered at 5 kHz and digitized at 50 kHz.\nTonic block of peak current is measured using a step to −10 mV (20 ms) from a holding potential of −120 mV (0.2 Hz). Use-dependent block of peak current is measured during pulse number 300 of a pulse train (−10 mV, 5 ms, 300 pulses, 10 Hz or 25 Hz) from a holding potential of −120 mV. Currents are then normalized to the peak current recorded in response to the first pulse in each frequency train. For tonic block studies, peak current is evaluated in response to a 20 ms depolarization to −10 mV (0.2 Hz). Two sequential pulse train stimulations are averaged to obtain mean current traces for each recording condition, which are then used for offline subtraction and analysis.\nA stock solution of 10 mM compound of Formula I is prepared in 0.1 M HCl or DMSO. A fresh dilution of the compound of Formula I in the bath solution is prepared every experimental day and the pH is readjusted to 7.35 as necessary. The final DMSO concentration was kept at 0.1% in all solutions. Direct application of the perfusion solution to the clamped cell is achieved using the Perfusion Pencil system (Automate, Berkeley, Calif.). Direct cell perfusion is driven by gravity at a flow rate of 350 μL/min using a 250 micron tip. This system sequesters the clamped cell within a perfusion stream and enables complete solution exchange within 1 second. The clamped cell is perfused continuously starting immediately after establishing the whole-cell configuration. Control currents are measured during control solution perfusion.\nSolutions are perfused for three minutes prior to current recordings to allow equilibrium (tonic) drug block. Tonic block of peak currents is measured from this steady-state condition. Three sequential current traces are averaged to obtain a mean current for each recording. The mean current traces are utilized for offline analysis."}
{"smiles": "FC(F)(F)c1ccc(-c2ccc3c(c2)C(NCc2ccccc2)=NCCO3)cc1", "note": "[II-2, N-benzyl-7-(4-(trifluoromethyl)phenyl)-2,3-dihydrobenzo[f][1,4]oxazepin-5-amine]", "values": [{"measurement": "inhibition at 1 µM", "result": 24, "unit": "%"}]}
